Converted amounts (≈) assume the structure as drawn.
Experiments:
Pseudomonas aeruginosa = assay: microbe, parasite or virus in culture; settings: ATCC 27853, 18 h, ASSAY_TEST Inhibition of Bacterial Growth, detection method Absorption (OD600), MEDIA CAMHB, plate type 384well, NBS, CORNING #3640
Description: Antibacterial activity against Pseudomonas aeruginosa ATCC 27853 (CO-ADD:GN_042); MIC in CAMBH media using NBS plates, by OD(600)

Escherichia coli = assay: microbe, parasite or virus in culture; settings: ATCC 25922, 18 h, ASSAY_TEST Inhibition of Bacterial Growth, detection method Absorption (OD600), MEDIA CAMHB, plate type 384well, NBS, CORNING #3640
Description: Antibacterial activity against Escherichia coli ATCC 25922 (CO-ADD:GN_001); MIC in CAMBH media using NBS plates, by OD(600)

Candida albicans = assay: microbe, parasite or virus in culture; settings: ATCC 90028, ASSAY_TEST Inhibition of Fungal Growth, detection method Absorption (OD530), plate type 384well, NBS, CORNING #3640
Description: Antifungal activity against Candida albicans ATCC 90028 (CO-ADD:FG_001); MIC in YNB media using NBS plates, by OD630

Staphylococcus aureus = assay: microbe, parasite or virus in culture; settings: ATCC 43300, 18 h, ASSAY_TEST Inhibition of Bacterial Growth, detection method Absorption (OD600), MEDIA CAMHB, plate type 384well, NBS, CORNING #3640
Description: Antibacterial activity against Staphylococcus aureus MRSA ATCC 43300 (CO-ADD:GP_020); MIC in CAMBH media, using NBS plates, by OD(600)

Acinetobacter baumannii = assay: microbe, parasite or virus in culture; settings: ATCC 19606, 18 h, ASSAY_TEST Inhibition of Bacterial Growth, detection method Absorption (OD600), MEDIA CAMHB, plate type 384well, NBS, CORNING #3640
Description: Antibacterial activity against Acinetobacter baumannii ATCC 19606 (CO-ADD:GN_034); MIC in CAMBH media using NBS plates, by OD600

Klebsiella pneumoniae = assay: microbe, parasite or virus in culture; settings: ATCC 700603, 18 h, ASSAY_TEST Inhibition of Bacterial Growth, detection method Absorption (OD600), MEDIA CAMHB, plate type 384well, NBS, CORNING #3640
Description: Antibacterial activity against Klebsiella pneumoniae MDR ATCC 70063 (CO-ADD:GN_003); MIC in CAMBH media using NBS plates, by OD(600)

HEK293 = assay: cells; format: functional; settings: Homo sapiens, ATCC CRL1573, HEK293; ASSAY_TEST Inhibition of Cell Viability; detection method Resazurin; Fluorescence (ex560/em590); MEDIA DMEM with 10% FBS; plate type 384well; TC; CORNING #3712; time 18 hr

Description for Cryptococcus neoformans: Antifungal activity against Cryptococcus neoformans H99 ATCC 208821 (CO-ADD:FG_002); MIC in YNB media using NBS plates, by Resazurin OD(600-570)

MIC (Pseudomonas aeruginosa) [µM] | MIC (Escherichia coli) [µM] | MIC (Cryptococcus neoformans) [µM] | MIC (Candida albicans) [µM] | MIC (Staphylococcus aureus) [µM] | MIC (Acinetobacter baumannii) [µM] | MIC (Klebsiella pneumoniae) [µM] | Structure (SMILES) | CC50 (HEK293) [µM]
> 10 | > 10 | > 10 | > 10 | > 10 | > 10 | > 10 | Oc1c(CN2CCN(c3ccccc3)CC2)cc(Br)c2cccnc12 | > 10
> 10 | > 10 | > 10 | > 10 | > 10 | > 10 | > 10 | Cc1c(N2CCCC2)cc2c(c1NC(=O)c1ccccc1Cl)C(C)(C)CC2(C)C | > 10
> 10 | > 10 | 10 (≈ 1.9 µg/mL) | 2.5 (≈ 0.476 µg/mL) | > 10 | > 10 | > 10 | CC(C)=NNc1ncnc2[nH]cnc12 | > 10
> 10 | > 10 | > 10 | > 10 | > 10 | > 10 | > 10 | Clc1ccc(SCNc2ccccc2Cl)cc1 | > 10
> 10 | > 10 | > 10 | > 10 | 5 (≈ 1.73 µg/mL) | > 10 | > 10 | Nc1ncnc2c1ncn2C1OC(COS(N)(=O)=O)C(O)C1O (stereo not given) | 0.227
> 10 | > 10 | > 10 | > 10 | 5 (≈ 1.1 µg/mL) | > 10 | > 10 | COC(=O)C1(F)C(=O)NC(=O)NC1OC (stereo not given) | > 10
> 10 | > 10 | > 10 | > 10 | > 10 | > 10 | > 10 | O=C(/C=C/c1cccnc1)c1ccccc1O | > 10
> 10 | > 10 | > 10 | > 10 | > 10 | > 10 | > 10 | CCCCOc1ccc(/N=N\c2ccc(N)nc2N)cn1 | > 10
> 10 | > 10 | 5 (≈ 1.69 µg/mL) | > 10 | 10 (≈ 3.38 µg/mL) | > 10 | > 10 | Cc1cc(N)c2cc(NC(=O)/C=C\c3ccccc3Cl)ccc2n1 | 2.78
10 (≈ 3.34 µg/mL) | 1.25 (≈ 0.418 µg/mL) | > 10 | > 10 | 0.156 (≈ 0.0523 µg/mL) | 5 (≈ 1.67 µg/mL) | > 10 | CO[C@@]12[C@H](COC(N)=O)C3=C(C(=O)C(C)=C(N)C3=O)N1C[C@@H]1N[C@@H]12 [MITOMYCIN] | 9.02

The next lines start with the compound.

Structure (SMILES) | MIC (Pseudomonas aeruginosa) [µM] | MIC (Escherichia coli) [µM] | MIC (Cryptococcus neoformans) [µM] | MIC (Candida albicans) [µM] | MIC (Staphylococcus aureus) [µM] | MIC (Acinetobacter baumannii) [µM] | MIC (Klebsiella pneumoniae) [µM] | CC50 (HEK293) [µM]
COC1C(OC(=O)c2ccc(C)[nH]2)C(O)C(Oc2ccc3c(O)c(NC(=O)c4ccc(O)c(CC=C(C)C)c4)c(=O)oc3c2Cl)OC1(C)C (stereo not given) | 10 (≈ 6.97 µg/mL) | > 10 | > 10 | > 10 | ≤ 0.0781 | > 10 | > 10 | 9.55
O=C(O)c1[nH]c(=O)[nH]c(=O)c1F | > 10 | > 10 | > 10 | > 10 | > 10 | > 10 | > 10 | > 10
c1ccc2nc(OCCN3CC3)ccc2c1 | > 10 | > 10 | > 10 | > 10 | > 10 | > 10 | > 10 | > 10
CCN1CCCC(Sc2nc3c(=S)n(C)c(=O)n(C)c3[nH]2)C1 (stereo not given) | > 10 | > 10 | > 10 | > 10 | > 10 | > 10 | > 10 | > 10
O=C(Nc1ccc(C2=NCCN2)cc1)c1ccc(Cl)c(C(=O)Nc2ccc(C3=NCCN3)cc2)c1 | > 10 | > 10 | > 10 | > 10 | > 10 | > 10 | > 10 | > 10
OC(c1cc(-c2ccc(Cl)cc2)nc2ccccc12)C1CCCCN1 (stereo not given) | > 10 | > 10 | > 10 | > 10 | > 10 | > 10 | > 10 | > 10
Oc1cccc2nc3ccccc3nc12 | > 10 | > 10 | > 10 | > 10 | > 10 | > 10 | > 10 | > 10
Sc1nc2ccc(Cl)cc2s1 | > 10 | > 10 | > 10 | 10 (≈ 2.02 µg/mL) | > 10 | > 10 | > 10 | > 10
O=C(Nc1ccccc1)C1=C(Nc2ccccc2)CSC1 | > 10 | > 10 | > 10 | > 10 | > 10 | > 10 | > 10 | > 10
O=C(O)C(=O)Nc1nc[nH]n1 | > 10 | > 10 | > 10 | > 10 | > 10 | > 10 | > 10 | > 10
Cc1ccc(NCCN(C)C)c2c(=O)c3cc(O)ccc3sc12 | > 10 | > 10 | > 10 | > 10 | > 10 | > 10 | > 10 | 1.3
Cn1ccc(=Nc2ccc(NC(=O)c3ccc(/N=c4\ccn(C)c5ccc([N+](=O)[O-])cc45)cc3)cc2)cc1 | > 10 | 10 (≈ 5.05 µg/mL) | 5 (≈ 2.52 µg/mL) | > 10 | 10 (≈ 5.05 µg/mL) | > 10 | > 10 | > 10
COC12C(COC(N)=O)C3=C(C(=O)C(C)=C(N)C3=O)N1CC1C2N1C (stereo not given) | > 10 | 5 (≈ 1.74 µg/mL) | > 10 | > 10 | 0.156 (≈ 0.0544 µg/mL) | > 10 | > 10 | > 10
NC1(N2SC(S)=C3CCCC=C32)CCCCC1 | > 10 | > 10 | > 10 | > 10 | 10 (≈ 2.68 µg/mL) | > 10 | > 10 | > 10
COC(=O)C1C(O)C(C)C(O)C(C)/C=C\C=C(/C)C(=O)Nc2c(C)c(OC(C)=O)c3c(c2O)C(=O)C(C)=C2OCOC(=C23)/C(C)=C/C(C)(O)C(O)C(C)C1O (stereo not given) | > 10 | > 10 | > 10 | > 10 | 1.25 (≈ 0.962 µg/mL) | > 10 | > 10 | 9.11
Nc1nc(N)c2c(ccc3[nH]ccc32)n1 | > 10 | > 10 | > 10 | > 10 | > 10 | > 10 | > 10 | > 10
COC1CC2\C=C(C)/C=C/C=C/C(=O)NC(c3ccccc3)C/C=C/CCC(O)CC(=O)C2=C1O (stereo not given) | > 10 | > 10 | 5 (≈ 2.39 µg/mL) | 1.25 (≈ 0.597 µg/mL) | 0.156 (≈ 0.0746 µg/mL) | > 10 | > 10 | 2.08
O=[N+]([O-])c1oc2ccc3ccccc3c2c1CCO | > 10 | 5 (≈ 1.29 µg/mL) | > 10 | > 10 | 2.5 (≈ 0.643 µg/mL) | > 10 | > 10 | 1.13
CC1=C(O)C(=O)C=C2C1=CC=C1[C@@]2(C)CC[C@@]2(C)[C@@H]3C[C@](C)(C(=O)O)CC[C@]3(C)CC[C@]12C [CELASTROL] | > 10 | > 10 | > 10 | > 10 | 2.5 (≈ 1.13 µg/mL) | > 10 | > 10 | 0.837
Nc1ccc(S(=O)(=O)Nc2cnc3ccccc3n2)cc1 [SULFAQUINOXALINE] | > 10 | > 10 | > 10 | > 10 | > 10 | > 10 | > 10 | > 10
